Measurements taken from ChEMBL document CHEMBL3137667, “[Drug-induced liver injury; fourteenth updated edition of the bibliographic database of liver injuries and related drugs]” (Gastroenterol Clin Biol, 2004).

What was measured:
[1] = Highest frequency of moderate liver toxicity observed during clinical trials, expressed as a percentage. [column '% BIOL' in source]; details: human
[2] = Presence of at least one case with successful reintroduction. [column 'REINT' in source]; details: human
[3] = Comments (NB not yet translated). [column 'COMMENTAIRES' in source]; details: human
[4] = Times to onset, minimal and maximal, observed in the indexed observations. [column 'DELAI' in source]; details: human
[5] = Proposed mechanism(s) of liver damage. [column 'MEC' in source]; details: human
[6] = human, serum
[7] = human
[8] = human; remark: listed apart in the source
[9] = human; remark: listed apart in the source
[10] = human, serum, 4383 h
[11] = human; remark: listed apart in the source
[12] = human; remark: listed apart in the source
[13] = human; remark: listed apart in the source
[14] = human; remark: listed apart in the source
[15] = human; remark: listed apart in the source
[16] = human; remark: listed apart in the source
[17] = Highest frequency of acute liver toxicity observed during clinical trials, expressed as a percentage. [column '% AIGUE' in source]; details: human
[18] = human, serum; remark: listed apart in the source
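For Hepatotoxicity (association with vascular disease) in this document: count of indexed literature references reporting vascular liver injury in humans, e.g. peliosis hepatitis, hepatic veno-occlusive disease or Budd-Chiari syndrome.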
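For Hepatotoxicity (benign tumour) in this document: value is a count of indexed literature references citing a benign tumour confirmed by histopathology.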
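For Hepatotoxicity (choleostasis) in this document: human cholestatic liver injury, shown by histopathology or by peak ALT or AST elevation over alkaline phosphatase ratio below 2, value counts indexed literature reports.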
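For Hepatotoxicity (chronic liver disease) in this document: chronic liver injury confirmed by histopathology or persistently raised serum aminotransferase activity beyond 6 months, value given as the count of indexed literature references.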
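For Hepatotoxicity (cirrhosis) in this document: value is a count of indexed literature references reporting cirrhosis confirmed by histopathology.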
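For Hepatotoxicity (cytolytic) in this document: human cytolytic liver injury, shown by histopathology or by a ratio above 5 of peak ALT or AST elevation to alkaline phosphatase elevation, value counts indexed references.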
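For Hepatotoxicity (granulomatous hepatitis) in this document: value is a count of indexed literature references reporting granulomatous liver disease confirmed by histopathology.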
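For Hepatotoxicity (malignant tumour) in this document: malignant tumour confirmed by histopathology, value gives the count of indexed literature references reporting it.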
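For Hepatotoxicity (severe hepatitis) in this document: human clinical data: severe hepatitis, meaning potentially life-threatening liver failure or clinically observed cases, the value counts how many indexed literature references report it.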
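For Hepatotoxicity (steatosis) in this document: steatosis confirmed by histopathology, value is the count of indexed references.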

| SMILES | Hepatotoxicity (moderate) ([1]; Liver) [%] | Hepatotoxicity (successful reintroduction) [2] | Hepatotoxicity (comment) [3] | Hepatotoxicity (time to onset) [4] | Hepatotoxicity (mechanism) [5] | Hepatotoxicity (moderate) [6] | Hepatotoxicity (cytolytic) [7] | Hepatotoxicity (choleostasis) [8] | Hepatotoxicity (severe hepatitis) ([9]; Liver) | Hepatotoxicity (chronic liver disease) [10] | Hepatotoxicity (cirrhosis) [11] | Hepatotoxicity (granulomatous hepatitis) [12] | Hepatotoxicity (association with vascular disease) [13] | Hepatotoxicity (steatosis) [14] | Hepatotoxicity (malignant tumour) [15] | Hepatotoxicity (benign tumour) [16] | Hepatotoxicity (moderate) [1] [%] | Hepatotoxicity (acute) [17] [%] | Hepatotoxicity (acute) [18] | Hepatotoxicity (severe hepatitis) [9] | other results |
| --- | --- | --- | --- | --- | --- | --- | --- | --- | --- | --- | --- | --- | --- | --- | --- | --- | --- | --- | --- | --- | --- |
| C=C[C@H]1C[N@@]2CC[C@H]1C[C@H]2[C@H](O)c1ccnc2ccc(OC)cc12 [QUININE] | 15.4 | yes | AC_ANTI-N | < 1 day - 2 years | Allergic | 2 | 3 | 2 | 0 | 0 | 0 | 4 | 0 | 0 | 0 | 0 | – | – | – | – | – |
| CCCc1cc(=O)[nH]c(=S)[nH]1 [PROPYLTHIOURACIL] | 27.8 | yes | AC_ANTI-N/-M CHOLESTASE_PROLONGEE | 1 day - 1.3 years | – | 5 | – | – | 19 | 4 | 1 | – | 0 | 0 | 0 | 0 | – | – | – | – | Hepatotoxicity (mechanism) ([5]; Liver): Allergic, Reactive metabolite; Hepatotoxicity (cytolytic) ([7]; Liver): 31; Hepatotoxicity (choleostasis) ([8]; Liver): 15; Hepatotoxicity (granulomatous hepatitis) ([12]; Liver): 0 |
| Clc1ccc(C(c2ccccc2Cl)C(Cl)Cl)cc1 (stereo not given) [MITOTANE] | – | yes | INDUCTION_ENZYMATIQUE | – | Dose-dependant | 5 | 0 | 0 | – | 0 | 0 | 0 | 0 | 0 | 0 | 0 | 0 | 0 | 0 | 0 | – |
| O=C1OCCN1/N=C/c1ccc([N+](=O)[O-])o1 [FURAZOLIDONE] | – | yes | RC/NITROFURANTOINE | – | Allergic | 1 | 1 | 3 | – | 0 | 0 | 0 | – | 0 | 0 | 0 | 0 | 0 | 3 | 0 | – |
| Nc1cc([As]2[As](c3ccc(O)c(N)c3)[As](c3ccc(O)c(N)c3)[As](c3ccc(O)c(N)c3)[As]2c2ccc(O)c(N)c2)ccc1O.Nc1cc([As]2[As](c3ccc(O)c(N)c3)[As]2c2ccc(O)c(N)c2)ccc1O (stereo not given) | – | yes | CHOLESTASE_PROLONGEE CHOLANGITE | 1 week - 1 year | – | 0 | 1 | 1 | – | 0 | 0 | 0 | 0 | 0 | 0 | 0 | 0 | 0 | 6 | 1 | – |
| C[C@]12CCC(=O)C=C1CC[C@@H]1[C@@H]2CC[C@@]2(C)[C@H]1CC[C@]2(C)O [METHYLTESTOSTERONE] | – | yes | ANGIOSARCOME CHOLESTASE_PROLONGEE CHOLANGITE #CBP PELIOSE | 1 week - 24 years | – | 4 | 2 | 21 | – | 0 | 2 | 0 | 4 | 0 | 10 | 6 | 32 | 0 | 30 | 1 | – |
| CN1Cc2c(N)cccc2C(c2ccccc2)C1 (stereo not given) [NOMIFENSINE] | – | yes | RC/MIANSERINE | 3 days - 3 months | – | 6 | 8 | 6 | – | 0 | 0 | 5 | 0 | 0 | 0 | 0 | 0 | 0 | 11 | 0 | – |
| Nc1ccn([C@@H]2CS[C@H](CO)O2)c(=O)n1 [LAMIVUDINE] | 44 | yes | REACTIVATION_HVB REACTIVATION_HVC | 10 days - 3 years | – | 15 | 26 | 1 | 15 | 1 | 0 | 0 | 0 | 13 | 0 | 0 | – | – | 30 | – | Hepatotoxicity (acute) ([17]; Liver): 12.5% |
| CN[C@H]1CC[C@@H](c2ccc(Cl)c(Cl)c2)c2ccccc21 [SERTRALINE] | 0.8 | yes | CHOLANGIOLITE | 3 days - 5 months | – | 4 | – | – | 1 | 0 | 0 | – | 0 | 0 | 0 | 0 | – | – | 8 | – | Hepatotoxicity (acute) ([17]; Liver): 0%; Hepatotoxicity (cytolytic) ([7]; Liver): 5; Hepatotoxicity (choleostasis) ([8]; Liver): 4; Hepatotoxicity (granulomatous hepatitis) ([12]; Liver): 0 |
